Experimental data published in US20060063930A1, “Compositions and methods comprising proteinase activated receptor antagonists” (priority 2004, published 2006).
Where a name gives a salt, the structure may show the parent alone. Where no end group is shown, it is not given here. [ ]: non-standard residue; d: D form. Dap = NC[C@H](N)C(=O)O

System: PAR-2
Assay: Inhibition of PAR-2 activating peptide (AP2) calcium signaling in cells pretreated with antagonist
Format: cell-based, human
Parameters: key to PAR-2 AP2 Signaling Treated/Control (T/C) / PAR-2 AP2 Signaling Treated/Control: AUC of calcium mobilization, treated ÷ control wells
Conditions: mimetic antagonists; AUC of calcium mobilization treated/control; initially screened at 1 mM compound
Experimental: In order to assess the potential of peptides and molecules selected above to block PAR-2 signaling, cells were pretreated with potential antagonist peptides for a predetermined amount of time and were subsequently treated with various GPCR agonists. Confluent Lewis lung carcinoma (LLC) cells were loaded for 30-60 minutes with the fluorescent dye Fluo-4. Final concentration 4 uM Fluo-4, 0.02% pluronic acid in physiological buffer. Cells were then washed with assay buffer, (HBSS containing 1 mM CaCl2, 1 mM MgSO4, and 2.5 mM probenecid). Cells were stimulated with various doses of PAR-2 activating peptide, PAR-1 activating peptide or ATP. Fluorescence was monitored using a Wallac 1470 fluorescent plate reader. (See Al-ani et. al Journal of Pharmacology and Experimental Therapeutics 290:2, 753-760). Additional compound screening was performed using U87-MG human glioma cells. In this assay cells were labeled with FLIPR Calcium 3 dye (Component A), which was dissolved in 10 mls of Assay Buffer without Probenecid. Loading buffer was prepared by diluting Component A with an additional 90 mls of Assay Buffer without Probenecid, giving a total volume of a 100 ml. For plate loading, 11 mls of FLIPR Calcium 3 dye (Component A) is placed into a 15 ml conical tube+110 μl of 250 mM Probenecid, at a final in-well working volume of 2.5 mM. Finally, 50 μl of Calcium 3 dye was added wells containing 100 μl media, and incubated 1 hr, 37° C., 5% CO2. Calcium signaling was then measured using a Flexstation II (Molecular Devices) following manufacturer's instructions.
Potential antagonist compounds were initially screened at 1 mM compound concentration. Those compounds with activity were then subjected to additional confirmatory testing. Activity is reported as treated/controlled (T/C) where the area under the curve (AUC) of calcium mobilization plots in treated wells is divided by the AUC of calcium mobilization plots in control wells to generate a measure of inhibition.

| Compound | PAR-2 AP2 Signaling Treated/Control |
| --- | --- |
| NCCCCCC(=O)N[C@@H]1CC[C@H](C(=O)NCC2CCCCC2)C1 [ENMD-1505, N-cyclohexylmethyl-3S-(6-aminohexanamido)-cyclopentane-1R-carboxamide] | 0.19 |
| NCCCCCCNC(=O)c1cc(NC(=O)CC2CCCCC2)[nH]n1 [ENMD-1551, 5-(2-cyclohexyl-acetylamino)-1H-pyrazole-3-carboxylic acid (6-amino-hexyl)-amide] | 0.66 |
| CC(C)CNc1ccc(C(=O)NCCCCN)cn1 [ENMD-1541] | 0.65 |
| NCCCNC(=O)c1ccc(OCC2CCCCC2)cc1 [ENMD-1409, N-(3-aminopropyl)-4-(cyclohexylmethoxy)-benzamide] | 0.45 |
| NCCCCCCNc1nc2ccc(C(=O)NCC3CCCCC3)cc2[nH]1 [ENMD-1553, 2-(6-Amino-hexylamino)-3H-benzoimidazole-5-carboxylic acid cyclohexylmethyl-amide] | 0.81 |
| CC(C)CCn1c(=O)n(CCc2ccc(NC(C)C)cc2)c2ccccc21 [ENMD-1563, 1-[4-(isopropylamine)-phenethyl]-3-isopentyl-1H-benzo[d]imidazole-2(3H)-one] | 0.62 |
| CC(C)Cn1cccc1C(=O)NCCCCCCN [ENMD-1537, N-(6-aminohexyl)-1-(2-methylpropyl)-2-pyrrolecarboxamide] | 0.91 |
| CC(C)CNC(=O)Cc1csc(NC(=O)CCCCCN)n1 [ENMD-1554, 6-amino-hexanoic acid [4-(isobutylcarbamoyl-methyl)-thiazol-2-yl]-amide] | 0.44 |
| CC(C)CNC(=O)c1cc(CNC(=O)CCCCN)on1 [ENMD-1555, 5-[(5-amino-pentanoylamino)-methyl]-isoxazole-3-carboxylic acid isobutyl-amide] | 0.86 |
| O=C(Cc1cn(CCCCN2C(=O)c3ccccc3C2=O)cn1)NC1CCCCC1 [ENMD-1535, N-cyclohexyl-2-(1-(4-(1,3-dioxoisoindolin-2-yl)butyl)-1H-imidazol-4-yl)acetamide] | 0.46 |
| O=C(Cc1ccccc1)N1CCN(C(=O)Cc2cnc[nH]2)CC1 [ENMD-1076, 1-(4-(2-(1H-imidazol-4-yl)acetyl)piperazin-1-yl)-1-benzyl-amide] | 0.14 |
| CC(C)CNC(=O)[C@H]1CC[C@@H](NC(=O)CCCCCN)C1 [ENMD-1536, N-isobutyl-3S-(6-aminohexanamido)-cyclopentane-1R-carboxamide] | 0.42 |
| CC(C)CC(=O)N1CC2CN(C(=O)CCCCCN)CC2C1 (stereo not drawn) [ENMD-1764] | 0.96 |
| NCCCCCCn1c(=O)n(CCC2CCCCC2)c2ccccc21 [ENMD-1518, 1-(6-aminohexyl)-3-[(2-cyclohexyl)ethyl]benzimidazol-(2)-one] | 0.58 |
| CC(C)CNC(=O)c1ccc(-c2ccc(NC(=O)CCCCCN)cc2)cc1 [ENMD-1527, 4′-(6-amino-hexanoylamino)-biphenyl-4-carboxylic acid isobutyl-amide] | 0.64 |
| CC(C)CCc1ccc(C(=O)NCCCCN)cc1 [ENMD-1552, N-(4-aminobutyl)-4-isopentyl-benzamide] | 0.10 |
| NCCCCNC(=O)c1cnc(NCC2CCCCC2)cn1 [ENMD-1571, 4-aminobutyl-6-cyclohexanemethylamino-2-pyrazine amide] | 0.81 |
| CCCC(=O)N1CCN(C(=O)CCCCCN)CC1 [ENMD-1036, N^1-butanoyl-N-4-[6′-aminohexanoyl]-piperazine] | 0.55 |
| Cl.O=C(CC1CCCCC1)N1CCN(C(=O)C2CCNCC2)CC1 [ENMD-1770, N^1-2-cyclohexylethanoyl-N-4-piperidine-4-carbonyl-piperazine hydrochloride] | 0.91 |
| Nc1ccc(CC(=O)N2CC3CN(C(=O)CC4CCCCC4)CC3C2)cc1 (stereo not drawn) [ENMD-1777, 1-(2-(2-(4-aminophenyl)acetyl-hexahydro-pyrrolo[3,4-c]pyrrol-5-(1H)-yl)-2-cyclohexyl)ethan-1-one] | 0.64 |

| Compound | PAR-2 AP2 Signaling Treated/Control |
| --- | --- |
| CC(C)CCn1c(=O)n(CCc2ccc(N)cc2)c2ccccc21 [ENMD-1573, 1-(4-aminophenethyl)-3-isopentyl-1H-benzo[d]imidazole-2(3H)-one] | 0.01 |
| CC(C)CNc1nc2ccc(C(=O)NCCCCCCN)cc2[nH]1 [ENMD-1525, 2-Isobutylamino-3H-benzoimidazole-5-carboxylic acid (6-amino-hexyl)-amide] | 0.52 |
| NCCCCNc1ccc(C(=O)NCC2CCCCC2)cn1 [ENMD-1543] | 0.55 |
| Nc1ccc(CC(=O)N2CCN(C(=O)CC3CCCCC3)CC2)cc1 [ENMD-1070, N^1-2-cyclohexylethanoyl-N^4-[2-(4-aminophenyl)-ethanoyl]-piperazine] | 0.05 |
| CC(C)CC(=O)Nc1ccc(NC(=O)CCCN)cc1 [ENMD-1397, N-(4-(3-methylbutanamido)phenyl)-4-aminobutyl-amide hydrobromide] | 0.15 |
| NCCCCCNC(=O)c1ccc(C(=O)NCC2CCCCC2)cc1 [ENMD-1766, N^1-(5-aminopentyl)-N-4-(cyclohexylmethyl)-terephthalamide] | 0.73 |
| Nc1ccc(CCn2c(=O)n(CCC3CCCCC3)c3ccccc32)cc1 [ENMD-1574, 1-(4-aminophenethyl)-3-(2-cyclohexylethyl)-1H-benzo[d]imidazole-2(3H)-one] | 0.01 |
| CC[C@@H](C)C(=O)N1CCN(C(=O)CCCCCN)CC1 [ENMD-1034, N^1-[R-2-methylbutanoyl]-N^4-[6′-aminohexanoyl]-piperazine] | 0.39 |
| CC(C)CC(=O)NCc1cc(C(=O)NCCCCCCN)no1 [ENMD-1556, 5-[(3-methyl-butyrylamino)-methyl]-isoxazole-3-carboxylic acid (6-amino-hexyl)-amide] | 0.57 |
| NCCCOc1ccc(C(=O)NCC2CCCCC2)cc1 [ENMD-1411, 4-(3-aminopropoxy)-N-(cyclohexylmethyl)-benzamide] | 0.43 |
| O=C(Cc1ccccn1)N1CCN(C(=O)CC2CCCCC2)CC1 [ENMD-1069, 1-(4-(2-cyclohexylacetyl)piperazin-1-yl)-2-(pyridin-2-yl)-acetaldehyde] | 0.94 |
| NCCCCC(=O)NCc1cc(C(=O)NCC2CCCCC2)no1 [ENMD-1558, 5-[(5-amino-pentanoylamino)-methyl]-isoxazole-3-carboxylic acid cyclohexylmethyl-amide] | 0.60 |
| CCC(C)C(=O)N1CCN(C(=O)CCCCCN)CC1 (stereo not drawn) [ENMD-1033, N′-[S-2-methylbutanoyl]-N^4-[6′-aminohexanoyl]-piperazine] | 0.28 |
| NCCCCCCNC(=O)C1CCS(=O)(=O)N1CCC1CCCCC1 (stereo not drawn) [ENMD-1547, N-(2-cyclohexyl)ethylisothiasolidine-1,1-dioxide-3-carboxylic acid-6-aminohexylamide] | 0.24 |
| NCCCCCC(=O)N1CC2CN(C(=O)CC3CCCCC3)CC2C1 (stereo not drawn) [ENMD-1776] | 0.82 |
| CCCCC(=O)N1CCN(C(=O)CCCCCN)CC1 [ENMD-1040, N^1-pentanoyl-N-4-[6′-aminohexanoyl]-piperazine] | 1.04 |
| Cl.O=C(CC1CCCCC1)Nc1ccc(NC(=O)C2CCCNC2)cc1 (stereo not drawn) [ENMD-1771, N-(4-(2-cyclohexylacetamido)phenyl) piperidine-3-carboxamide hydrochloride] | 0.05 |
| NCCCCCC(=O)Nc1nc(CC(=O)NCC2CCCCC2)cs1 [ENMD-1560, 6-amino-hexanoic acid {4-[(cyclohexylmethyl-carbamoyl)-methyl]-thiazol-2-yl}-amide] | 0.48 |
| CC(C)CC(=O)N1CCN(C(=O)CCCCCNC(=N)N)CC1 [ENMD-1067, 4-(3-methylbutanoyl)piperazin-1-(5′-carbamoyl-pentylguanidine)] | 0.77 |

Same assay, conditions: peptides; AUC of calcium mobilization treated/control; initially screened at 1 mM compound

| Compound | PAR-2 AP2 Signaling Treated/Control (T/C) |
| --- | --- |
| LIPK [ENMD-1052] | 0.89 |
| LIGS [ENMD-1049] | 0.64 |
| LPGK [ENMD-1053] | 0.89 |
| dL-dI-dG-dK [ENMD-1032] | 0.44 |
| LIGT [ENMD-1050] | 0.70 |
| IGR [ENMD-1023] | 0.23 |
| IGK-amide (Ile-Gly-Lys-NH2) [ENMD-1021] | 0.67 |
| IG-Dap (Ile-Gly-[Dap]) [ENMD-1025, Dap=diamino proprionic acid] | 0.31 |
| LIGQ [ENMD-1048] | 0.59 |
